The text below walks through data of article PMC10974284, “Discovery of Novel 4-Hydroxyquinazoline Derivatives: In Silico, In Vivo and In Vitro Studies Using Primary PARPi-Resistant Cell Lines” (Molecules, 2024).

Data set [1] addresses T1, PARP1 (Homo sapiens, UniProt P09874).
T1 construct: purchased Sigma-Aldrich 17-10149
The data set can be described thus: PARP1 enzyme inhibition assay (commercial kit). Type of data set: biochemical.

In data set [2] the test system is HCC1937 cell lines. The data set can be described thus: MTT cytotoxicity assay, HCC1937. It counts as cell-based, human. As to conditions: Homo sapiens. The procedure: (§1) After treatment with target compounds at the different concentrations, MTT was added and the cells were incubated for another 4 h. The IC50 values of the selected compounds were evaluated by the same method. The cells were treated with compounds at different concentrations. The OD values were detected using a microplate reader at 570 nm.
On the technique in general: Tetrazolium dyes change colour on reduction, which living cells bring about.

For data set [3], the system named is HCT-15 cell lines. Briefly: MTT cytotoxicity assay, HCT-15. It counts as cell-based, human. As to conditions: Homo sapiens. Here is the method:
as §1

The test system of data set [4] is NCM460. Briefly: MTT cytotoxicity assay, NCM460 normal colonic epithelial cells. Type of data set: cell-based. As to conditions: NCM460, 72 h; 3 days, human normal colonic epithelial cells. Here is the method:
as §1

The test system of data set [5] is γH2AX in HCT-15 cell lines. Briefly: Immunofluorescence analysis of γH2AX, HCT-15. It counts as cell-based, human. As to conditions: HCT-15, 10 μM. Here is the method: (§2) The cells were seeded in 6-well plates with 1 × 10^5 cells per well and incubated for 24 h. […] Cells were fixed with addition of 4% paraformaldehyde, and immunostaining blocking solution was added at room temperature for 20 min. […] Then, a […] staining solution (DAPI) was added for staining, the […] staining solution was aspirated, and the well washed 3 times with washing solution. Photographs were taken through a Leica SP8 Laser confocal microscope.

Data set [6] has as its system γH2AX in HCC1937 cell lines. Briefly: Immunofluorescence analysis of γH2AX, HCC1937. Type of data set: cell-based, human. As to conditions: HCC1937, 10 μM. The procedure: as §2
Data set [7] concerns PAR formation in HCT-15 cell lines. The data set can be described thus: Immunofluorescence analysis of PAR, H2O2-treated HCT-15. It counts as cell-based, human. The procedure: as §2
In data set [8] the test system is MDA-MB-231. Briefly: MTT cytotoxicity assay, MDA-MB-231. As to conditions: Homo sapiens. Type of data set: cell-based. The procedure: as §1
Data set [9] concerns Caspase-3, cleaved Caspase-3, Bax, Bcl-2 in HCC1937 cell lines. Briefly: Western blot of apoptosis-related proteins, HCC1937. It counts as cell-based, human. As to conditions: HCC1937, 1.25-20 μM, 48 h. Here is the method: (§3) Subsequently, the cells were lysed with RIPA lysis buffer and protein samples were prepared. Denatured proteins were separated by 10% SDS-PAGE electrophoresis and transferred to a PVDF membrane. The membrane was blocked with 5% blocking solution for 2 h. The membrane was incubated overnight at 4 °C with specific primary antibody. Then, the membrane was rinsed three times with TBST, secondary antibody was added, and the membrane was incubated at room temperature for 2 h. Finally, the target protein was detected by the ECL detection system. The relative expression was quantified using Image J (National Institutes of Health).

In data set [10] the test system is HCC1937 cell lines. The data set can be described thus: Cell apoptosis assay (Annexin V-FITC/PI flow cytometry), HCC1937. It counts as cell-based, human. As to conditions: HCC1937, 20 μM, 48 h. Here is the method:
(§4) The cells were seeded in 6-well plates with 1 × 10^5 cells per well and incubated for 24 h. […] The cells were digested, collected, and resuspended in the binding buffer. After adding 5 μL of Annexin V-FITC and 10 μL of propidium iodide (PI), the cells were incubated for 30 min away from light; this was followed by detection using flow cytometry (Beckman Coulter).

For data set [11], the system named is Caspase-3, cleaved Caspase-3, Bax, Bcl-2 in HCT-15 cell lines. The data set can be described thus: Western blot of apoptosis-related proteins, HCT-15. As to conditions: HCT-15, 1.25-20 μM, 48 h. Type of data set: cell-based, human. The procedure: as §3
In general terms: In western blotting, separated proteins are transferred to a membrane and probed.

The subject of data set [12] is HCC1937 cell lines. The data set can be described thus: Mitochondrial membrane potential assay (JC-1), HCC1937. Type of data set: cell-based, human. From the text:
(§5) Cell culture methods were the same as for the cell apoptosis assay.
(§6) The experimental operation was the same as ROS, only replacing the DCFH-DA probe with the JC-1 probe.

In data set [13] the test system is HCT-15 nude mouse xenograft model. The data set can be described thus: In vivo anti-tumor study. The procedure: The tumor volume and mouse body weight were recorded, and the corresponding tissues were analyzed.
All experimental procedures were performed according to the National Institutes of Health guidelines for the use of laboratory animals, and an application was made to the Institutional Animal Care and Use Committee, Shandong Second Medical University, which was approved. […] When the tumor volume reached about 80–150 mm^3, the mice were randomly divided into three groups (the control group, and different concentration administration group) and administered for 14 consecutive days, while the tumor volume was measured once every two days and the body weight of the mice was recorded. At the end stage, mice were killed by neck-breaking and tumor tissues were removed. All the photographs were taken through a Leica SP8 Laser confocal microscope.

Data set [14] is described as follows: Acute toxicity study in mice. Type of data set: in vivo, mouse. As to conditions: single intraperitoneal injection 800 mg/kg, monitored 14 days. Here is the method: The mice were administered a single intraperitoneal injection dose of 800 mg/kg and were constantly monitored for 14 days.
Data set [15] deals with LO2. Briefly: MTT cytotoxicity assay, LO2 normal hepatocytes. It counts as cell-based. As to conditions: L02, 72 h; 3 days, human normal hepatocytes. The procedure:
as §1

In data set [16] the test system is PAR formation in HCC1937 cell lines. The data set can be described thus: Immunofluorescence analysis of PAR, H2O2-treated HCC1937. Type of data set: cell-based, human. The procedure:
as §2

Data set [17] relates to HCT-15 cell lines. The data set can be described thus: Mitochondrial membrane potential assay (JC-1), HCT-15. Type of data set: cell-based, human.
Text: as §5, §6

The test system of data set [18] is HCT-15 cell lines. Briefly: Cell apoptosis assay (Annexin V-FITC/PI flow cytometry), HCT-15. It counts as cell-based, human. As to conditions: HCT-15, 20 μM, 48 h. Here is the method:
as §4
Background: A flow cytometer gives signals particle by particle.

Setting [19] is: HCC1937, 72 h (3-Days) drug exposure, MTT, read-out: IC50 HCC1937.
Setting [20] is: HCT-15, 72 h (3-Days) drug exposure, MTT, read-out: IC50 HCT-15.

Like-named read-outs stand apart in the source and are kept apart here.

Usually IC50 stands for the concentration that gives 50% inhibition. For orientation: inhibition means the share of the control response that was lost under treatment. As usually defined, the melting point is the temperature of the solid-liquid transition.

T1 sequence (P09874 whole entry): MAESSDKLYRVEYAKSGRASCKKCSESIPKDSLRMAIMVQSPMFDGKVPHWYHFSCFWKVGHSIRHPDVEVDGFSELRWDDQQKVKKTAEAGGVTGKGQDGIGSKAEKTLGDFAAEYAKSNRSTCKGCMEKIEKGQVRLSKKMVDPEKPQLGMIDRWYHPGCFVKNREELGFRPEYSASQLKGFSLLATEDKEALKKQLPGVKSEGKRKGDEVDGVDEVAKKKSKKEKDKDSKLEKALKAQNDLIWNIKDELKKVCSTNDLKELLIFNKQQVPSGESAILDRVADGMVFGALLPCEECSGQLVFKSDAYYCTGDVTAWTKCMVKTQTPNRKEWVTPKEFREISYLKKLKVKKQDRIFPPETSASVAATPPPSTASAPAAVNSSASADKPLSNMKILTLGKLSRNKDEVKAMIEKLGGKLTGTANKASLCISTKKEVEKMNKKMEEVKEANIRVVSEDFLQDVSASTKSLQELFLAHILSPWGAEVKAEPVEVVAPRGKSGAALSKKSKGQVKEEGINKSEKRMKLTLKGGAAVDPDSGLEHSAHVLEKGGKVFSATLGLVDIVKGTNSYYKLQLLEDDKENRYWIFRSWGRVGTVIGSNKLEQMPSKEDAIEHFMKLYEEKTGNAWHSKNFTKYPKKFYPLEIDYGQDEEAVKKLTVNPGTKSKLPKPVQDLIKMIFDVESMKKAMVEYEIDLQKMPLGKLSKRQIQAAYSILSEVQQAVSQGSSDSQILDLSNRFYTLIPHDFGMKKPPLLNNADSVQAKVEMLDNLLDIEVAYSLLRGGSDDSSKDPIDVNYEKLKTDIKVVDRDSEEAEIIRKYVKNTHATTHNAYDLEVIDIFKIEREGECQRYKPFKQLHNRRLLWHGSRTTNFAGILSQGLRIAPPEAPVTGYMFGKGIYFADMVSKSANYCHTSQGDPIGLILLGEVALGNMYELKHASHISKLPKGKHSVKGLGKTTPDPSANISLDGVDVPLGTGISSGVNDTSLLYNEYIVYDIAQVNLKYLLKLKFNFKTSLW

In the case of `O=C(Nc1ccc(F)cc1F)N1CCN(Cc2nc3ccccc3c(=O)[nH]2)CC1` [IN17], the IC50 in data set [1] was 0.4713 ± 0.00318 µM; in data set [1] (as printed in the text), 0.47 ± 0.0032 µM; in data set [2] (setting [19]), 34.3 ± 2.68 µM; in data set [3] (setting [20]), 33.5 ± 1.79 µM. The inhibition at 0.5 µM in data set [1] (0.5 μM, read-out: Inhibition rate (%) PARP1) came out at 53.1%. Moreover, the inhibition at 50 µM in data set [2] (HCC1937, 50 μM, 72 h, MTT, read-out: Inhibition rate (%) HCC1937) turned out to be 60.6%; in [3] (HCT-15, 50 μM, 72 h, MTT, read-out: Inhibition rate (%) HCT-15), 63.3%.
Regarding `Cc1ccc(Cl)cc1NC(=O)N1C2CC1CN(Cc1nc3ccccc3c(=O)[nH]1)C2` [B1, N-(5-chloro-2-methylphenyl)-3-((4-oxo-3,4-dihydroquinazolin-2-yl)methyl)-3,6-diazabicyclo[3.1.1]heptane-6-carboxamide], the half-maximal inhibitory concentration (IC50) in data set [4] is greater than 100 µM; in data set [2] (setting [19]), 3.26 ± 0.38 µM; in [2] (HCC1937, 7 days drug treatment, read-out: IC50 HCC1937 7-Days) it was 0.17 ± 0.04 µM; in [8] (MDA-MB-231, 72 h, 3 days, read-out: IC50 MDA-MB-231 3-Days), 11.3 ± 1.93 µM; in data set [8] (MDA-MB-231, 7 days, read-out: IC50 MDA-MB-231 7-Days) it was 1.33 ± 0.51 µM; in data set [3] (setting [20]), 2.89 ± 0.78 µM. The IC50 in data set [3] (HCT-15, 7 days drug treatment, read-out: IC50 HCT-15 7-Days) is 0.13 ± 0.03 µM; in [15], greater than 100 µM. In addition, the “expression of γH2AX” value in [5] and in data set [6] was “significantly increased” each time. Moreover, the “PAR aggregation (green fluorescence)” value in data set [7] (H2O2-treated HCT-15, 1.25 μM) is listed as “green fluorescence obviously weakened”; in [7] (H2O2-treated HCT-15, 5 μM), “green fluorescence almost disappeared”; in [16] (H2O2-treated HCC1937, 1.25 μM) it was “green fluorescence obviously weakened”; in data set [16] (H2O2-treated HCC1937, 5 μM), “green fluorescence almost disappeared”. For the same compound, the Bax expression result in data set [9] and in [11] was “considerably increased Bax expression” throughout. Also, the Bcl-2 expression result in data set [9] and in data set [11] was “decreased Bcl-2 expression” in each case. In addition, the Caspase-3 activation entry in [9] and in data set [11] was “activated Caspase-3” throughout. The figures for the apoptosis rate in data set [10] and in data set [18] were 53.14% and 73.58%, respectively. Further, the “mitochondrial membrane potential (JC-1 fluorescence)” value is given as “green fluorescence began to change significantly” in [12] (HCC1937, 5 μM); “the intensity of red fluorescence was hardly visible” in data set [12] (HCC1937, 20 μM); “green fluorescence began to change significantly” in data set [17] (HCT-15, 5 μM); “the intensity of red fluorescence was hardly visible” in [17] (HCT-15, 20 μM). In addition, in data set [13] (10 mg/kg intraperitoneally once daily for 14 days), the “tumor cell morphology (H&E)” value was “irregular morphological alterations and severe vacuolization”. Also, the “xenograft tumor growth (tumor volume and weight)” value in data set [13] (25 mg/kg intraperitoneally once daily for 14 days) and in data set [13] (50 mg/kg intraperitoneally once daily for 14 days) was “significantly inhibited xenograft tumor growth” throughout. Moreover, in data set [14], the “body weight, acute toxicity” value is on record as “no significant reduction in body weight”. The “major organs (H&E), acute toxicity” value in data set [14] is reported as “no significant changes in heart, liver, spleen, lung, or kidney”.
In the case of `Cc1ccc(Cl)cc1NC(=O)N1C2CC1CN(Cc1nc3cc(F)ccc3c(=O)[nH]1)C2` [C1, N-(5-chloro-2-methylphenyl)-3-((7-fluoro-4-oxo-3,4-dihydroquinazolin-2-yl)methyl)-3,6-diazabicyclo[3.1.1]heptane-6-carboxamide], the melting point fell in the range of 193.2 to 195.1 °C. For the same compound, the IC50 in data set [2] (HCC1937, 72 h, read-out: IC50 HCC1937) was 9.22 ± 1.19 µM. In addition, in data set [3] (HCT-15, 72 h, read-out: IC50 HCT-15), the IC50 came out at 24.1 ± 2.25 µM.
`Cc1cccc(C)c1NC(=O)N1CCN(Cc2nc3ccccc3c(=O)[nH]2)CC1` [A33, N-(2,6-dimethylphenyl)-4-((4-oxo-3,4-dihydroquinazolin-2-yl)methyl)piperazine-1-carboxamide] showed a melting point of 200.3 to 201.9 °C. In addition, the IC50 in data set [2] (setting [19]) turned out to be 39.6 ± 1.35 µM. In addition, in [3] (setting [20]), the IC50 was 35 ± 2.28 µM.
